In article PMC3565318, “Catalytic Mechanism of Short Ethoxy Chain Nonylphenol Dehydrogenase Belonging to a Polyethylene Glycol Dehydrogenase Group in the GMC Oxidoreductase Family” (International Journal of Molecular Sciences, 2013):

Molecular target: T1, NPEO-DH (short ethoxy chain nonylphenol dehydrogenase) (Ensifer sp. AS08, UniProt Q2HXX0)
T1 construct: gene pegdh; complete ORF (1659 bp, 553 residues) in pCold I, His-tag, expressed in E. coli BL21(DE3) pLysS, Ni-NTA purified; FAD flavoprotein
T1 sequence (Q2HXX0 entry or part of it): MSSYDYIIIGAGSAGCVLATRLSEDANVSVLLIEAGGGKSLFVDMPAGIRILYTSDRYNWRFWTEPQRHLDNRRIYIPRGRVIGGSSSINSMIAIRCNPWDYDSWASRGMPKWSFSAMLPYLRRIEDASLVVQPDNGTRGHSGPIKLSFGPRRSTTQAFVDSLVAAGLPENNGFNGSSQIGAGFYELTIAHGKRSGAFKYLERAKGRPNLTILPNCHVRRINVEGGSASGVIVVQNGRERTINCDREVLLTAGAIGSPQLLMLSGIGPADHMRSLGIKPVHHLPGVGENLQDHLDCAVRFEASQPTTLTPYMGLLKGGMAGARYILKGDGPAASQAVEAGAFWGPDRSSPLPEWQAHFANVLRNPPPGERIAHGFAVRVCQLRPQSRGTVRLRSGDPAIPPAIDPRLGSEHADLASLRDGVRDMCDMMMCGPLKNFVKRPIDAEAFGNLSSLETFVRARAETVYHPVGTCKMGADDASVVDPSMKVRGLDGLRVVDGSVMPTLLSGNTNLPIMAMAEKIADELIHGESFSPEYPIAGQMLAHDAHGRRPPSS
Experiment: stopped-flow, absorbance at […] nm
Assay type: biochemical
Conditions: electron acceptor; PEG 1000-reduced enzyme, 0.01 mM DCIP, 0.1 M Tris-HCl pH 8.0, 30 °C

Compound: O=C1C(Cl)=CC(=Nc2ccc(O)cc2)C=C1Cl [2,6-dichloroindophenol]
- stopped-flow, absorbance at 600 nm: performed with the reduced form of enzyme (reduced flavin) and a minimal concentration of DCIP
